Among the test systems are KM12 colon; HOP-92 NSCLC; A498 renal; 786-0 renal; SK-MEL-28 melanoma; SK-OV-3 ovarian; U251 CNS; SF-268 CNS; UACC-62 melanoma; K-562 leukemia.
Holding throughout (assay): inhibition of tumour cell growth, NCI panel, 48 h

“And” between values parts separate entries of the source, which are not always exact repeats. Equal entries are not always repeated.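 Dose response: 5 concentrations. Exposure: 48 h. Format: 96-well plates. Endpoint: linear interpolation; highest concentration if not reached. GI50 is the concentration that inhibits growth by half. TGI: concentration producing complete growth inhibition.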 Where only a bound is given, the exact number is not on record here.

As to `CCNCCNc1cc(-c2cccc(C(F)(F)F)c2)c(C#N)c2nc3ccccc3n12`, the GI50 was 1.63 µM in the test on KM12 colon; 1.69 µM with HOP-92 NSCLC; 1.64 µM in the test on A498 renal; 1.02 µM in the test on 786-0 renal; 1.86 µM in the test on SK-MEL-28 melanoma; 2 µM in the test on SK-OV-3 ovarian. Also, the GI50 is 1.67 µM in the test on U251 CNS, 1.57 µM with SF-268 CNS and 1.69 µM with UACC-62 melanoma. Also, the TGI in the test on KM12 colon came out at 3.13 µM; in the test with HOP-92 NSCLC, 3.54 µM; in the test on A498 renal, 3.08 µM; in the test on 786-0 renal, 2.33 µM; in the test with SK-MEL-28 melanoma, 3.63 µM; with SK-OV-3 ovarian, 3.49 µM. For the same compound, the TGI in the test on U251 CNS was 3.08 µM; in the test with SF-268 CNS, 3.12 µM; in the test on UACC-62 melanoma, 3.2 µM.

`CCOc1ccc(NC(=O)CCC(=O)NN)cc1`: the TGI in the test on KM12 colon, in the test on HOP-92 NSCLC, in the test on 786-0 renal, in the test on SK-MEL-28 melanoma, with U251 CNS and with SF-268 CNS was above 100 µM throughout. The TGI in the test on K-562 leukemia is above 100 µM.

With `Cc1cccc(N=C2NC(=O)C(CC(=O)Nc3ccc(Cl)cc3C)S2)c1` (stereo not given), the TGI with KM12 colon, in the test on A498 renal, with 786-0 renal, in the test on SK-MEL-28 melanoma, with SK-OV-3 ovarian and in the test on SF-268 CNS was above 100 µM in each case. Moreover, the TGI with UACC-62 melanoma and with K-562 leukemia was above 100 µM in each case.

On to `CC(C)[O-].CC(C)[O-].[O-]c1cccc2cccnc12.[O-]c1cccc2cccnc12.[Ti+4]`, for which the GI50 in the test on KM12 colon was 21 µM; in the test on HOP-92 NSCLC, 14.3 µM; in the test on 786-0 renal it was 3.38 µM and 4.05 µM; in the test with SK-MEL-28 melanoma it was 56.5 µM; in the test with SK-OV-3 ovarian it was above 100 µM; with U251 CNS, above 100 µM. Further, the GI50 in the test with SF-268 CNS is 6.4 µM and 51.1 µM; with UACC-62 melanoma, 28.5 µM; in the test on K-562 leukemia, 3.04 µM and 3.37 µM. In addition, the TGI was 50 µM with KM12 colon; 50.3 µM in the test on HOP-92 NSCLC; 20.9 µM in the test on 786-0 renal; above 100 µM in the test on SK-MEL-28 melanoma; above 100 µM in the test on SK-OV-3 ovarian; above 100 µM in the test on U251 CNS. The TGI in the test on SF-268 CNS, with UACC-62 melanoma and with K-562 leukemia was above 100 µM in each case.

For the compound `CC[C@@]1(OC(=O)CN)C(=O)OCc2c1cc1n(c2=O)Cc2cc3c(N)c4c(cc3nc2-1)OCO4`, the GI50 is 0.0136 µM and 0.0192 µM in the test on KM12 colon; 0.00226 µM with A498 renal; below 0.0001 µM with 786-0 renal; 0.0409 µM and 0.119 µM in the test on SK-MEL-28 melanoma; 0.00015 µM in the test with SK-OV-3 ovarian; below 0.0001 µM with U251 CNS. In addition, the GI50 is below 0.0001 µM with SF-268 CNS, below 0.0001 µM in the test with UACC-62 melanoma and 0.00254 µM with K-562 leukemia. Moreover, the TGI was 0.182 µM and 1.27 µM with KM12 colon; 0.0661 µM in the test on A498 renal; 0.0093 µM with 786-0 renal; above 100 µM with SK-MEL-28 melanoma; 0.148 µM in the test with SK-OV-3 ovarian; 0.0186 µM and 0.0571 µM in the test with U251 CNS. The TGI is 0.125 µM and 0.183 µM in the test on SF-268 CNS; 0.0246 µM with UACC-62 melanoma; 0.508 µM in the test with K-562 leukemia.

Turning to `CC1(C)CC2CC(C)(CN2c2ncnc3ccc(Br)cc23)C1` (stereo not given), the GI50 with KM12 colon is 11.1 µM; in the test on HOP-92 NSCLC, 13.4 µM; in the test on 786-0 renal it was 12.8 µM; in the test with SK-MEL-28 melanoma, 13.9 µM; with SK-OV-3 ovarian, 16.8 µM; in the test on U251 CNS it was 13.3 µM. Moreover, the GI50 is 17.9 µM with SF-268 CNS, 5.76 µM with UACC-62 melanoma and 1.62 µM in the test with K-562 leukemia. For the same compound, the TGI in the test on KM12 colon is 26.5 µM; in the test on HOP-92 NSCLC, 27.3 µM; in the test on 786-0 renal, 25.4 µM; in the test with SK-MEL-28 melanoma it was 28 µM; with SK-OV-3 ovarian it was 31.2 µM; with U251 CNS, 26.1 µM. For the same compound, the TGI came to 37.9 µM in the test with SF-268 CNS, 19.5 µM in the test with UACC-62 melanoma and 6.79 µM in the test with K-562 leukemia.

Regarding `Cc1cc(C)c2[s+]snc2c1`, the TGI with KM12 colon, in the test on A498 renal, in the test on 786-0 renal, in the test on SK-MEL-28 melanoma, with SK-OV-3 ovarian and in the test on U251 CNS was above 100 µM each time. Besides, the TGI in the test on SF-268 CNS, with UACC-62 melanoma and in the test on K-562 leukemia was above 100 µM each time.

As for `CP(C)C.[Ag][I]`, the TGI in the test on KM12 colon, in the test on HOP-92 NSCLC, in the test with 786-0 renal, in the test on SK-MEL-28 melanoma, with SK-OV-3 ovarian and in the test with U251 CNS was above 100 µM each time. Moreover, the TGI in the test on SF-268 CNS, in the test on UACC-62 melanoma and in the test with K-562 leukemia was above 100 µM in each case.

In the case of `N#CC(C#N)=Cc1ccc(-c2ccc(-c3nc4ccccc4o3)cc2)o1`, the GI50 was 19.4 µM with KM12 colon; 24.9 µM with A498 renal; 15.8 µM in the test on 786-0 renal; above 100 µM in the test with SK-MEL-28 melanoma; 38.3 µM in the test on SK-OV-3 ovarian; 21.7 µM in the test with U251 CNS. Besides, the figures for the GI50 in the test on SF-268 CNS, in the test with UACC-62 melanoma and with K-562 leukemia were 52 µM, 42.4 µM and 19.3 µM, respectively. The TGI with KM12 colon was above 100 µM; in the test with A498 renal it was 70 µM; in the test on 786-0 renal, 34 µM; in the test on SK-MEL-28 melanoma it was above 100 µM; with SK-OV-3 ovarian it was above 100 µM; with U251 CNS, 52.5 µM. Moreover, the TGI with SF-268 CNS, in the test with UACC-62 melanoma and in the test on K-562 leukemia was above 100 µM in each case.

`CC(=O)N[C@@H](Cc1ccc(OP(=O)(O)O)cc1)C(=O)N[C@H]1CCC(=O)N2CCC[C@@H](C(=O)NCc3ccc(O)cc3)N2C1=O`: the GI50 in the test on KM12 colon, with A498 renal, with 786-0 renal, in the test on SK-MEL-28 melanoma, with SK-OV-3 ovarian and in the test on U251 CNS was above 25 µM each time. For the same compound, the GI50 with SF-268 CNS, in the test on UACC-62 melanoma and in the test on K-562 leukemia was above 25 µM throughout. For the same compound, the TGI with KM12 colon, in the test with A498 renal, in the test with 786-0 renal, in the test on SK-MEL-28 melanoma, in the test with SK-OV-3 ovarian and with U251 CNS was above 25 µM throughout. The TGI with SF-268 CNS, in the test on UACC-62 melanoma and with K-562 leukemia was above 25 µM throughout.

For `CCOC(=O)N1CCC(=O)C[C@@H]1C/C=C/P1(=O)O[C@H](c2ccccc2)C(C)N1C(C)C` (stereo not given in full), the TGI in the test with KM12 colon, in the test on HOP-92 NSCLC, in the test on 786-0 renal, in the test with SK-MEL-28 melanoma, in the test on SK-OV-3 ovarian and in the test on U251 CNS was above 100 µM each time. Moreover, the TGI with SF-268 CNS, with UACC-62 melanoma and with K-562 leukemia was above 100 µM in each case.
